Values of other authors, collected in article PMC5447021, “TNF Lectin-Like Domain Restores Epithelial Sodium Channel Function in Frameshift Mutants Associated with Pseudohypoaldosteronism Type 1B” (Frontiers in Immunology, 2017).

Target: T1, αβγ-hENaC (Homo sapiens, UniProt P37088+P51168+P51170)
T1 construct: expressed in transfected cells; host or cells: HEK-293
T1 sequence (P37088 1-669): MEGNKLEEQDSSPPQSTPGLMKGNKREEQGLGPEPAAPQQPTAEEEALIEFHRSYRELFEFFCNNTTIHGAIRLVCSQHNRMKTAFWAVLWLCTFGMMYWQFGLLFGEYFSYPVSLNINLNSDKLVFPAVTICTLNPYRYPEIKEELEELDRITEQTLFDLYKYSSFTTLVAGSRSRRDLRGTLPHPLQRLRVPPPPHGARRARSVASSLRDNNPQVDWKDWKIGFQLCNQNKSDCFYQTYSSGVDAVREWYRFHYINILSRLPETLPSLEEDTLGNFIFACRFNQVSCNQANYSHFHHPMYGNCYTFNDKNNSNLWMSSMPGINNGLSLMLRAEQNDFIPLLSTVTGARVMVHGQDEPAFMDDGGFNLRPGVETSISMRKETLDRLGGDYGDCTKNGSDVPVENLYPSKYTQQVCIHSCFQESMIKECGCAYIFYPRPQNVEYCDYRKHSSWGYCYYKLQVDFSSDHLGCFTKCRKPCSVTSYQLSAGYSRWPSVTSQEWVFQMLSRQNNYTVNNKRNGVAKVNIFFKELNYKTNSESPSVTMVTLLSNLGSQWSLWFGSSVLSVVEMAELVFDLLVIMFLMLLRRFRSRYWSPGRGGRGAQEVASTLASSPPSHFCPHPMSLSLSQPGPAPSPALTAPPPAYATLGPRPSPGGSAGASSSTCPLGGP
T1 sequence (P51168 1-640 partner): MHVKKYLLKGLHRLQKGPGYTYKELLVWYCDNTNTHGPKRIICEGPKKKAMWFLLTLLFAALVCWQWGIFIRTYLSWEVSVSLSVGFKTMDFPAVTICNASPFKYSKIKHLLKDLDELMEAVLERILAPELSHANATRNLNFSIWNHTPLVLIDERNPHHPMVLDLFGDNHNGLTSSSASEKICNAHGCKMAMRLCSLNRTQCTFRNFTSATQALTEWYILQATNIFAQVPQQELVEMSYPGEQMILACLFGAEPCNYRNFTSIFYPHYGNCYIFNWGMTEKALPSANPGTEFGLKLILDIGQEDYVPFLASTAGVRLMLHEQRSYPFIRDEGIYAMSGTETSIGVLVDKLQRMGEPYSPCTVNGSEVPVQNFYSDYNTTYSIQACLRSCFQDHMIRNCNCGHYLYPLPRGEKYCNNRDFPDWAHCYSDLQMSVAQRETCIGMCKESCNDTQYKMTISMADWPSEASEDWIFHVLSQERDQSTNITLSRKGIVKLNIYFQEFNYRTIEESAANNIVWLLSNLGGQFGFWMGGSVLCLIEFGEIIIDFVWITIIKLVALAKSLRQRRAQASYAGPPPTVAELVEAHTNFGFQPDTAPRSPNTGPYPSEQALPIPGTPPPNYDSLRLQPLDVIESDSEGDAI
T1 sequence (P51170 1-649 partner): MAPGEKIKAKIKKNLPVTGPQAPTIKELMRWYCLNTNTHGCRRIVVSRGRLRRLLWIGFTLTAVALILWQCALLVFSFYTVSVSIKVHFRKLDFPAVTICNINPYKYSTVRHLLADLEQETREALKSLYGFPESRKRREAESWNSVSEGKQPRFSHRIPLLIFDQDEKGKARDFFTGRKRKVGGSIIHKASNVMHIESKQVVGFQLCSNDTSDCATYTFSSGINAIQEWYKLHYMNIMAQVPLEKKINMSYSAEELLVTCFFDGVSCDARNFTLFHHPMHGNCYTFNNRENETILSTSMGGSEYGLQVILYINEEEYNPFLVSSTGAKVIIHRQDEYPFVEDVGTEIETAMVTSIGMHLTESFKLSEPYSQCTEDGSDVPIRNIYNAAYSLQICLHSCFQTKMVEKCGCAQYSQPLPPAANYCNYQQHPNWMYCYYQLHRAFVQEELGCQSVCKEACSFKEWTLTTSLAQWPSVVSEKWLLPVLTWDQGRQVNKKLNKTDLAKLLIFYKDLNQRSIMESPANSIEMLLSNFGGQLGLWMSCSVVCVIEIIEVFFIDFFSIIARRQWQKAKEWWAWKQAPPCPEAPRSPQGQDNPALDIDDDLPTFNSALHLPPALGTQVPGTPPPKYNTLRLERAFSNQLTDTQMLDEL
Design: method as in 2 sources, ref 16 = [16]; PMID 24077967; doi:10.1124/mol.113.089409; 16 Shabbir W Scherbaum-Hazemi P Tzotzos S Fischer B Fischer H Pietschmann H Mechanism of action of novel lung edema therapeutic AP301 by activation of the epithelial sodium channel . Mol Pharmacol ( 2 ||| ref 24 = [24]; PMID 20979368; doi:10.1021/jm100767p; 24 Hazemi P Tzotzos SJ Fischer B Andavan GS Fischer H Pietschmann H Essential structural features of TNF-α lectin-like domain derived peptides for activation of amiloride-sensitive sodium current in A
Details: αβγ-hENaC in HEK-293, whole-cell, -100 mV, amiloride-sensitive control current 75.8 ± 4.5 pA, mean ± S.E.; cited from earlier work

## C[C@@H]1NC(=O)CNC(=O)[C@H](CCC(=O)O)NC(=O)[C@@H]2CCCN2C(=O)[C@H]([C@@H](C)O)NC(=O)[C@H](CCC(=O)O)NC(=O)[C@H](CCCNC(=N)N)NC(=O)[C@H](CCC(N)=O)NC(=O)CNC(=O)[C@@H](N)CSSC[C@@H](C(=O)O)NC(=O)[C@H](Cc2ccc(O)cc2)NC(=O)[C@H](Cc2c[nH]c3ccccc23)NC(=O)[C@@H]2CCCN2C(=O)[C@H](CCCCN)NC(=O)[C@H](C)NC(=O)[C@H](CCC(=O)O)NC1=O [solnatide, L-cysteine, L-cysteinylglycyl-L-glutaminyl-L-arginyl-L-α-glutamyl-L-threonyl-L-prolyl-L-α-glutamylglycyl-L-alanyl-L-α-glutamyl-L-alanyl-L-lysyl-L-prolyl-L-tryptophyl-L-tyrosyl-, cyclic (1→17)-disulfide]
  Maximal induced current, solnatide: 953.2 ± 11.5 pA
